Columns and labels:
[1] = system: human umbilical arterial smooth muscle cells (HUASMC); assay: ECM / collagen-1 deposition in human umbilical arterial smooth muscle cells; format: cell-based; conditions: 0, 25, 50, 100 μM ascorbic acid; p>0.05
Procedure: Human lung fibroblasts (WI-38; American Tissue Culture Collection), Human skin fibroblasts (WS-1; American Tissue Culture Collection) were routinely cultured in Dulbecco's modified Eagle medium with 10% fetal bovine serum (FBS), 1% penicillin-streptomycin at 37° C. in a humidified atmosphere of 5% CO2. Commercially available Smooth Muscle Growth Medium-2 (CLONETICS® SmGM®-2) and supplements (SmGM-2 SingleQuots) were used for human umbilical arterial smooth muscle cells (HUASMC; CLONETICS® UASMC-Human Umbilical Artery Smooth Muscle Cells; Lonza CC-2579). Cells were seeded at 50,000 cells/well in 24-well plates and were allowed to attach for 24 hours. […] To induce collagen synthesis, fibroblasts were supplemented with 100 μM L-ascorbic acid phosphate. The HUASMC was supplemented with various concentration of ascorbic acid (0 μM, 25 μM, 50 μM and 100 μM). In some of the experiment commercially available human serum (Lonza, Belgium) was also used as supplement in place of FBS. At the end of culture time points, culture media were collected into separate vials, whereas cell layers were washed twice with Hank's balanced salt solution (HBSS). […] Cell layer and Medium samples were analyzed by SDS-PAGE under nonreducing conditions with Mini-Protean 3 (Bio-Rad Laboratories). […] Collagen bands were quantified by defining each band with the rectangular tool with background subtraction.

enzymatic activity = conditions: cited from earlier work

| Structure (SMILES) | effect of ascorbic acid on ECM deposition [1] | effect on enzymatic activity (enzymatic activity) |
| --- | --- | --- |
| O=C1O[C@H]([C@@H](O)CO)C(O)=C1O [ascorbic acid] | did not affected ECM deposition | – |
| OC[C@H]1O[C@@](CO)(O[C@H]2O[C@H](CO)[C@@H](O)[C@H](O)[C@H]2O)[C@@H](O)[C@@H]1O [Sucrose] | – | Ineffective |
